Results published in patent publication US12503475B2 (Centessa Pharmaceuticals (UK) Limited, priority 2020, dated 2025).

Target: T1, human orexin type 2 receptor (hOX2R) (Homo sapiens, UniProt O43614)
T1 construct: expressed in transfected cells
T1 sequence (O43614 1-444): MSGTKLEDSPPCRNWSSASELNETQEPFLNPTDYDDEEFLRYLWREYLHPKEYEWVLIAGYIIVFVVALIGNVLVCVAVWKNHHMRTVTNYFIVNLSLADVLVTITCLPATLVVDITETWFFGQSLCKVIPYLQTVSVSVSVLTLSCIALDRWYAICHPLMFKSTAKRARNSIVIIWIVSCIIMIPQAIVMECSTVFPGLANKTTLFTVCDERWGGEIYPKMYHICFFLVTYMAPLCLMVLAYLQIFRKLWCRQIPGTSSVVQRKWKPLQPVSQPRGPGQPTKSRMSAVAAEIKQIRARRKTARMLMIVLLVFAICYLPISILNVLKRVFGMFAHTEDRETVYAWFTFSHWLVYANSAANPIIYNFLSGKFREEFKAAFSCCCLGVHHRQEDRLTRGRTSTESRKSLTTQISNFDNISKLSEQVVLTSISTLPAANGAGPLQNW
Experiment: Measurement of orexin type 2 receptor agonist activity (FLIPR calcium fluorescence)
Assay type: cell-based
Settings: CHO cells expressing hOX2R, FLIPR calcium fluorescence; for EC50: read-out: hOx2 pEC50 (converted); for Emax: CHO, read-out: hOx2 Emax (%)
Summary of the method: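 Agonism was read as fluorescence in cells stably expressing human OX2R. E. is the response at 10 μM relative to orexin A as full agonist (100%).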

Work on O=C(NCC1(F)CC1)N1CC2(CC2)[C@H](NS(=O)(=O)C(F)F)[C@@H]1Cc1cccc(-c2cc(F)cc(F)c2)c1F [Compound 235, (6S,7S)-7-((difluoromethyl)sulfonamido)-N-((1-fluorocyclopropyl)methyl)-6-((2,3′,5′-trifluoro-[1,1′-biphenyl]-3-yl)methyl)-5-azaspiro[2.4]heptane-5-carboxamide] yielded an EC50 of 1 to 10 nM and an Emax of 90 to 100%.

In the case of O=C([C@@H](O)C1CC1)N1CC2(CC2)[C@H](NS(=O)(=O)C(F)F)[C@@H]1Cc1cc(F)cc(-c2cc(F)cc(F)c2)c1F [Compound 384, N-((6S,7S)-5-((S)-2-cyclopropyl-2-hydroxyacetyl)-6-((2,3′,5,5′-tetrafluoro-[1,1′-biphenyl]-3-yl)methyl)-5-azaspiro[2.4]heptan-7-yl)-1,1-difluoromethanesulfonamide], the EC50 is reported as 1 to 10 nM and the Emax is reported as 90 to 100%.

In the case of COC[C@H](O)C(=O)N1CC2(CC2)[C@H](NS(=O)(=O)C(F)F)[C@@H]1Cc1cccc(-c2ccccc2)c1F [Compound 183, 1,1-difluoro-N-((6S,7S)-6-((2-fluoro-[1,1′-biphenyl]-3-yl)methyl)-5-((S)-2-hydroxy-3-methoxypropanoyl)-5-azaspiro[2.4]heptan-7-yl)methanesulfonamide], the EC50 is reported as 1 to 10 nM and the Emax is reported as 90 to 100%.

Work on CN(C)S(=O)(=O)N[C@@H]1[C@H](Cc2cc(F)cc(-c3ccccc3)c2F)N(C(=O)[C@H](O)CF)CC12CC2 [Compound 353] yielded an EC50 of 1 to 10 nM and an Emax of 90 to 100%.

O=C([C@H]1CCO1)N1CC2(CC2)[C@H](NS(=O)(=O)C(F)F)[C@@H]1Cc1cccc(-c2cccc(F)c2)c1 [Compound 213, 1,1-difluoro-N-((6S,7S)-6-((3′-fluoro-[1,1′-biphenyl]-3-yl)methyl)-5-((R)-oxetane-2-carbonyl)-5-azaspiro[2.4]heptan-7-yl)methanesulfonamide] showed an EC50 of 1 to 10 nM and an Emax of 90 to 100%.

For CS(=O)(=O)N[C@@H]1[C@H](Cc2cccc(-c3ccccc3)c2F)N(C(=O)NC[C@@H]2CCOC2)CC12CC2 [Compound 329, (6S,7S)-6-((2-fluoro-[1,1′-biphenyl]-3-yl)methyl)-7-(methylsulfonamido)-N-(((S)-tetrahydrofuran-3-yl)methyl)-5-azaspiro[2.4]heptane-5-carboxamide], the EC50 was 1 to 10 nM and the Emax was 90 to 100%.

In the case of O=C([C@H](O)CF)N1CC2(CC2)[C@H](NS(=O)(=O)C(F)F)[C@@H]1Cc1cccc(-c2ccccc2)c1F [Compound 174, 1,1-difluoro-N-((6S,7S)-5-((S)-3-fluoro-2-hydroxypropanoyl)-6-((2-fluoro-[1,1′-biphenyl]-3-yl)methyl)-5-azaspiro[2.4]heptan-7-yl)methanesulfonamide], the EC50 is reported as 1 to 10 nM and the Emax is reported as 90 to 100%.

For CCS(=O)(=O)NC1C(Cc2cccc(-c3ccccc3)c2)N(C(=O)C(C)C)CC12CC2 (racemic) [Compound 7, N-(6-([1,1-biphenyl]-3-ylmethyl)-5-isobutyryl-5-azaspiro[2.4]heptan-7-yl)ethanesulfonamide], the EC50 was 1 to 10 nM and the Emax was 90 to 100%.

CC(F)(F)C(=O)N1CC2(CC2)C(NS(C)(=O)=O)C1Cc1cccc(-c2cccc(F)c2)c1F (racemic) [Compound 24, N-(6-((2,3′-difluoro-[1,1′-biphenyl]-3-yl)methyl)-5-(2,2-difluoropropanoyl)-5-azaspiro[2.4]heptan-7-yl)methanesulfonamide] was tested, and the EC50 was 10 to 100 nM and the Emax was 80 to 90%.

In the case of O=C([C@@H](O)C(F)F)N1CC2(CC2)[C@H](NS(=O)(=O)C(F)F)[C@@H]1Cc1cccc(-c2ccccc2)c1F [Compound 198, N-((6S,7S)-5-((R)-3,3-difluoro-2-hydroxypropanoyl)-6-((2-fluoro-[1,1′-biphenyl]-3-yl)methyl)-5-azaspiro[2.4]heptan-7-yl)-1,1-difluoromethanesulfonamide], the EC50 is reported as 1 to 10 nM and the Emax is reported as 90 to 100%.
